The values below come from PMC2680961, “Homologous desensitization of signalling by the alpha (α) isoform of the human thromboxane A2 receptor: A specific role for nitric oxide signalling” (Biochimica et Biophysica Acta, 2007).

Structures are written as SMILES.

For one test, the target named is T1, TPα^S331,T337,S340A (Homo sapiens, UniProt P21731, S331A/S340A/T337A).
T1 construct: expressed in transfected cells
T1 sequence (P21731 1-343 S331A/T337A/S340A): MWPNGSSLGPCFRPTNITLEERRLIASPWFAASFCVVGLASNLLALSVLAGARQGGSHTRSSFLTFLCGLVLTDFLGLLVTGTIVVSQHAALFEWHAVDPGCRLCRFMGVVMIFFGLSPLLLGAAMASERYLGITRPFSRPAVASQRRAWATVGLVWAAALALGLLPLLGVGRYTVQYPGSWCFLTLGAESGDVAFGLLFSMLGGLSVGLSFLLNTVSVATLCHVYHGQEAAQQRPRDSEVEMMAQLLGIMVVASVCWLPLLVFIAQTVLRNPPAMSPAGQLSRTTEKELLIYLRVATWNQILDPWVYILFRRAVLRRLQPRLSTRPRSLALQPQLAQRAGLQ
In words: [3H]SQ29,548 radioligand binding, Scatchard analysis, HEK.TPα^S331,T337,S340A. The procedure:
Cells were harvested by centrifugation at 500×g at 4 °C for 5 min and washed three times with ice-cold Ca^2+/Mg^2+-free phosphate-buffered saline (PBS). TP radioligand binding assays were carried out at 30 °C for 30 min in 100 μl reactions in the presence of 0–40 nM [^3H] […] Protein determinations were carried out using the Bradford assay.
Radioligand binding and Scatchard analysis data were analysed using GraphPad Prisim V4.0 programme (GraphPad Software Inc., San Diego CA, USA). Statistical analyses were carried out using the unpaired Student's t test using the Statworks Analysis Package. p-values ≤ 0.01 indicated statistically significant differences.

A further test has as its target T2, TPα^S331,340A (Homo sapiens, UniProt P21731, S331A/S340A).
T2 construct: expressed in transfected cells
Briefly: Intracellular calcium mobilization, HEK.TPα^S331,340A cells. It counts as cell-based. As for the experimental part: Measurement of intracellular calcium mobilization ([Ca^2+]i) in FURA2/AM preloaded HEK 293 cell lines (2 × 10^6 cells/dish), each transiently co-transfected with pADVA (10 μg), and pCMV:Gαq (25 μg), was carried out as previously described. To investigate the effect of GRK2/βARK1 on TP-mediated [Ca^2+]i mobilization, HEK.TPα or HEK.TPβ cells (2 × 10^6 cells/dish) were co-transfected with pADVA (10 μg), pCMV:Gαq (25 μg) along with pRK5:βARK1^495–689 (25 μg), encoding a dominant negative form of GRK2/βARK1[39]. […] For each measurement of [Ca^2+]i mobilization, aliquots of cells were diluted to 0.825 × 10^6 cells/ml in HBSSHB, 1 mM CaCl2 and FURA2 fluorescence was recorded (2 ml aliquots of cells) at 37^ °C with gentle stirring with a Perkin Elmer-Cetus LS50-B spectrofluorometer at excitation wavelengths of 340 nm and 380 nm and emission wavelength of 510 nm, respectively.
Cells were stimulated with the TP agonist U46619 (1 μM) and changes in [Ca^2+]i mobilization were monitored as a function of time. […]
The vehicle had no effect on U46619-mediated [Ca^2+]i mobilization. Calibration of the signal was performed in each sample by adding 0.2% Triton X-100 to obtain the maximal fluorescence ratio (Rmax) and then 1 mM EGTA to obtain the minimal fluorescence ratio (Rmin). […]

The test system of the next test is eNOS. In words: eNOS phosphorylation (anti-phospho eNOS^Ser1177 western blot). In kind it is cell-based, human. Conditions: HEK.TPα cells (also HEK 293, HEK.TPβ); 1 μM U46619 or 10 U/ml Thrombin, 5 min, 37 °C. As for the experimental part:
In order to assess eNOS phosphorylation, HEK.TPα, HEK.TPβ or HEK 293 cells (2 × 10^6 cells/10-cm dish) were plated some 48 h prior to experimentation. Cells were incubated with vehicle, 1 μM U46619 or 10 U/ml Thrombin for 5 min at 37 °C and aliquots of whole cell protein (100 μg/lane) were analysed by SDS-PAGE/western blot. Blots were initially screened using the anti-phospho eNOS^1177 as per supplier's instructions (Cell Signalling Technology) and, following stripping, were subsequently re-screened using the anti-eNOS (Transduction Laboratories).
(A western blot detects proteins with antibodies after separation by electrophoresis.)

T2 sequence (P21731 whole entry S331A/S340A): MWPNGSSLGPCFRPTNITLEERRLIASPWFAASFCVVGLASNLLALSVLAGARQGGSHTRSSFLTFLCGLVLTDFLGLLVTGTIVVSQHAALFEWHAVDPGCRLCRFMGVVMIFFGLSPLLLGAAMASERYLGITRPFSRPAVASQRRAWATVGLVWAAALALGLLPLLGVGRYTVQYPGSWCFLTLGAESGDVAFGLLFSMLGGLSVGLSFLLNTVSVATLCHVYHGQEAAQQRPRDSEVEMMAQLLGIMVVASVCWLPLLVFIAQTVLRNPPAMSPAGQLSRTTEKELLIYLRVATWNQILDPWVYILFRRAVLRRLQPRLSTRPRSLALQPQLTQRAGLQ

`O=C(O)CCC/C=C\C[C@@H]1[C@H](CNNC(=O)Nc2ccccc2)[C@H]2CC[C@@H]1O2` [SQ29,548]: the “Bmax (pmol/mg protein ± S.E.M.)” value on TPα^S331,T337,S340A was determined as 4.01 ± 0.05 pmol/mg protein.

Turning to `CCCCC[C@H](O)/C=C/[C@@H]1[C@@H](C/C=C\CCCC(=O)O)[C@H]2CO[C@@H]1C2` [U46619], the “Δ[Ca2+]i, U46619-induced” value is on record as 160 ± 7.2 nM on TPα^S331,340A (primary 1 μM U46619 4 min) and 60 ± 10 nM on TPα^S331,340A (secondary 1 μM U46619 at 15 min). In addition, the “eNOS phosphorylation at Ser^1177” value in the test with eNOS was “rapid phosphorylation-dependent activation of eNOS”.
